From PMC9119131, “Fragile protein folds: sequence and environmental factors affecting the equilibrium of two interconverting, stably folded protein conformations” (Magnetic resonance, 2021)

What was measured:
[1] = molecular target: T1, ARNT PAS-B (aryl hydrocarbon receptor nuclear translocator) (Homo sapiens, UniProt P27540, Y456T); assay: […]/1H HSQC NMR titration ([…]/1H HSQC titration also gave Kd […]); assay type: binding
T1 construct: PAS-B domain, residues 356–470 (with N-terminal GAMD cloning artifact)

[2] = molecular target: T1, ARNT PAS-B (aryl hydrocarbon receptor nuclear translocator); assay: […]/1H HSQC NMR titration (L391 δ[…] methyl); assay type: binding

T1 sequence (P27540 356-470 Y456T): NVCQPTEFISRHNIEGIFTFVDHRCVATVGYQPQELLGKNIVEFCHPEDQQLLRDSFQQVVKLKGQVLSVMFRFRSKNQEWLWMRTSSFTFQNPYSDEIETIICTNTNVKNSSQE

SMILES	Kd [1] [mM]	Kd [2] [mM]
FC(F)(F)c1cc(-c2nn[nH]n2)cc(C(F)(F)F)c1 [KG-548, 5-(3,5-bis(trifluoromethyl)phenyl)tetrazole]	0.684 ± 0.0331	
Oc1cc(C(F)(F)F)cc(C(F)(F)F)c1 [KG-655, 3,5-bis(trifluoromethyl)phenol]		1.95 ± 0.152
